Measured values as given in patent US9669028B2, “Substituted 5-(pyrazin-2-yl)-1H-pyrazolo [3, 4-B] pyridine and pyrazolo [3, 4-B] pyridine derivatives as protein kinase inhibitors” (Arrien Pharmaceuticals LLC, priority 2011, dated 2017).
pIC50: −log10 of the molar value. “And” between values parts separate entries of the source, which are not always exact repeats. Equal entries are not always repeated.

Columns and labels:
[1] = test system: MPTP-injected C57 black mice; assay: MPTP mouse model, post-treatment study; format: in vivo; settings: post-administration, oral and i.v routes
Method: (§1) 32 C57 black mice (C57/bl6, 6-8 week old, 25-30 g) were purchased from Charles River Laboratories, Ohio. […] All animals were housed in Laboratory of Animal Resources vivarium at Iowa State University under standard conditions: constant temperature (22±1° C.), humidity (relative, 30%), and a 12-h light/dark cycle. Mice were allowed free access to food and water. Use of the animals and protocol procedures were approved and supervised by the Committee on Animal Care at Iowa State University (Ames, Iowa). Test compounds were dissolved in PBS for this study. Prior to treatment animals were pre-trained on rotarod for at least 3 minutes every day for three successive days. Group A animals were injected with saline (i.p.) to be used as controls. MPTP was dissolved in PBS and injected intraperitoneally (i.p.) at doses of 25 mg/kg, once daily for 5 days to group B, C and D animals. On day 4, prior to 4th MPTP injection, group C animals received test compounds (30 mg/kg, oral) daily for eight days. Similarly, on day 4, prior to 4th MPTP injection, group D animals received test compounds (5 mg/kg, i.v) daily for eight days. On day 9 (Post-test compounds administration) or day 12 (7 days post-MPTP), 4 animals/group were sacrificed, different brain regions including striatum and substantia nigra were dissected. Left striatum were used for neurochemical analysis. Other 4 animals/group were perfused and used for TH immunohistological studies.

[2] = physchem
[3] = BBB post-treatment results, concentration in mice brains; format: in vivo, mouse; settings: pooled regions
Method: as §1, with “Other 4 animals/group were perfused and used for TH immunohistological studies.” left out

[4] = test system: MPTP-injected C57 black mice; assay: MPTP mouse model, intravenous pre-treatment; format: in vivo; settings: 5 mg/kg i.v.
Method: 24 C57 black mice (C57/bl6, 6-8 week old, and 25-30 g) were purchased from Charles River Laboratories, Ohio. […] Prior to treatment animals were pre-trained on rotarod for at least 3 minutes every day for three successive days. Test compound (5 mg/kg) was administered intravenously to group C animals, 24 h prior to MPTP-injection and continued daily for additional 11 days. MPTP was dissolved in PBS and injected intraperitoneally (i.p.) at doses of 25 mg/kg, once daily for 5 days to group B and C animals. Group A animals were injected with saline (i.p.) to be used as controls. Urine and Faeces were collected on Day 8, behavioural studies were performed on Day 9 (4-days post-MPTP). On day 12 (7 days post-MPTP), 4 animals/group were sacrificed, different brains regions including striatum and substantia nigra were dissected. Left striatum were used for neurochemical analysis. Other 4 animals/group were perfused and used for TH immunohistological studies.

[5] = in vivo; settings: male, Sprague Dawley, rat
From the text: To investigate the pharmacokinetic profiles of test compound following intravenous bolus administration and oral gavage in male Sprague Dawley rats.

[6] = test system: Rat hepatoma (H4IIE) cell line; assay: In vitro toxicology, general cytotoxicity; format: cell-based; settings: rat, 24 h
Method: Cells were seeded into 96-well plates and cultured in medium containing 20% bovine serum. […] General cytotoxicity was evaluated by monitoring membrane integrity (MBR, cell supernatant), cell mass (PI) and mitochondrial function (cellular ATP levels). Rotenone was included as a positive control because it produces measurable effects in all three assays. DMSO at 0.5% in medium was included as a negative control. Three wells per exposure concentration were used in each assay. Results are summarized in Table 8 and are expressed as percent of control, with control values set at 100%. […] Test compounds 13 and 13 HCl were rank-ordered from most to least toxic based on individual membrane integrity and ATP responses as well as resultant TC50 values.
Test compounds 13 and 13 HCl were rank-ordered from highest to lowest probability of producing toxicity based first on membrane toxicity, then on ATP, and finally on cell mass (PI). It is important to note that within a given grouping compounds may be classified as to their primary effect being either cytotoxic, cytostatic, or reducing mitochondrial function. In general, compound responses above 80% of vehicle control are considered to be low-to-no effect, moderates generally rank 80% to 50% of vehicle control, and those compounds that cross the 50% mark are considered to have higher probability of toxicity.

[7] = test system: MPTP-injected C57 black mice; assay: MPTP mouse model of Parkinson's disease, oral pre-treatment; format: in vivo; settings: for protection against MPTP-induced TH cell loss and dopaminergic degeneration in substantia nigra and striatum: 10 mg/kg and 30 mg/kg oral; for locomotor activities in MPTP-injected mice / striatal dopamine levels in MPTP treated mice: orally administered, pre-treatment
[8] = target: LRRK2 G2019S (Homo sapiens (Human), UniProt Q5S007, G2019S); assay: LRRK2 G2019S Kinase Assay; format: biochemical; settings: 10 μM ATP
LRRK2 G2019S, sequence (Q5S007 970-2527 G2019S): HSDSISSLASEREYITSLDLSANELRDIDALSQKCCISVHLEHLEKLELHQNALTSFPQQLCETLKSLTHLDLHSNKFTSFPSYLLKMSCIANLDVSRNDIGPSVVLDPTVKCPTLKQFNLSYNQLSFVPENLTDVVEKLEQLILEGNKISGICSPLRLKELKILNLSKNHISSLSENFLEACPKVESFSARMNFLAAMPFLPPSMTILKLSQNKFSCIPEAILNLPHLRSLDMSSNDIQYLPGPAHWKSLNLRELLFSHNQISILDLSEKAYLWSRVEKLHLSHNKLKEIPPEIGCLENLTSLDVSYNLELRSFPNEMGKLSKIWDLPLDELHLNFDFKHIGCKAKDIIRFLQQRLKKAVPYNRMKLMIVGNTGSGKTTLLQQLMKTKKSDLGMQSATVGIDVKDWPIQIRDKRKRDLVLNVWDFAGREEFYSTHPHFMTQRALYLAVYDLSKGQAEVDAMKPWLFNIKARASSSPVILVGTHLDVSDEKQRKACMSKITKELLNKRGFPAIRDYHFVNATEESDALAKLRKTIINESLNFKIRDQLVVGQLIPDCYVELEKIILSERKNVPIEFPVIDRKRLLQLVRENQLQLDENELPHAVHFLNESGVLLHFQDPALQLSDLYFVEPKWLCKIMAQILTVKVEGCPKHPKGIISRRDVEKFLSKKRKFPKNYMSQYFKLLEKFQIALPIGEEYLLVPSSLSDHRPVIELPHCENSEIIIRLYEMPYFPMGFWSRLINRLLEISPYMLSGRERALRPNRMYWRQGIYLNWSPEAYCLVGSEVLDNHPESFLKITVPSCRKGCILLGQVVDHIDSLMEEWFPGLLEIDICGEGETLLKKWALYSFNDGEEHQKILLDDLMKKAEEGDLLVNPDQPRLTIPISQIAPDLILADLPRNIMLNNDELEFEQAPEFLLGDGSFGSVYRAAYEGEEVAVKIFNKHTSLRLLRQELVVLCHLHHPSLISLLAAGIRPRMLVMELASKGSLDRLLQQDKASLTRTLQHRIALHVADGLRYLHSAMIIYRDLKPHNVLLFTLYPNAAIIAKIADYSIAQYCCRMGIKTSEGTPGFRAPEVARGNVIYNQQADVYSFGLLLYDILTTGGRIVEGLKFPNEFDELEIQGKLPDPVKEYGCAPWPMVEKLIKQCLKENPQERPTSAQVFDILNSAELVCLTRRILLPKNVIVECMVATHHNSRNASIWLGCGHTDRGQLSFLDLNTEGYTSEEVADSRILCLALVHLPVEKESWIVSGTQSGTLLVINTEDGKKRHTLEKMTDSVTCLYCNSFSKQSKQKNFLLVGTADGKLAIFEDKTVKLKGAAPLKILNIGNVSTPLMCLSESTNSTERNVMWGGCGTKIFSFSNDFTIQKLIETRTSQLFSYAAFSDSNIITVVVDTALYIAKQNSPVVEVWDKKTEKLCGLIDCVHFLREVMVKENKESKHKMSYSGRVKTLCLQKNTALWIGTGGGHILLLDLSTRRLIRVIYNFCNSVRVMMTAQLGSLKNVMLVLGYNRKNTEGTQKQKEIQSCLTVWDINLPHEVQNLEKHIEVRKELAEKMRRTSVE
Outline: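 Radiometric filter-binding assay: enzyme, substrate peptide and compound were mixed on ice, ATP added, then incubated 20 min at 30° C. Reaction was stopped with phosphoric acid and the peptide captured on filters. Incorporated radioactivity was read by scintillation counting; staurosporine served as reference.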

[9] = target: LRRK2 (Homo sapiens (Human), UniProt Q5S007); assay: LRRK2 Kinase Assay; format: biochemical; settings: 10 μM ATP
LRRK2, sequence (Q5S007 970-2527): as the sequence (Q5S007 970-2527 G2019S) above, with S1050G counted along it
Outline: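 Radiometric filter-binding assay: compound pre-incubated ~20 min with kinase and substrate peptide in 20 mM HEPES pH 7.5, 10 mM MgCl2, 1% DMSO, then 10 μM ATP with 33P-ATP added.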

[10] = target: DYRK1A (Homo sapiens (Human), UniProt Q13627); assay: In vitro DYRK1A inhibition assay; format: biochemical
Method: Briefly, specific kinase/substrate pairs along with required cofactors were prepared in reaction buffer; 20 mM Hepes (pH 7.5), 10 mM MgCl2, 1 mM EGTA, 0.02% Brij35, 0.02 mg/ml BSA, 0.1 mM Na3VO4, 2 mM DTT, 1% DMSO. Compounds were delivered into the reaction, followed ˜20 min later by addition of a mixture of ATP (Sigma) and 33P ATP (PerkinElmer) to a final concentration of 10 μM. […] IC50 values and curve fits were obtained using Prism (GraphPad Software). Kinome tree representations were prepared using Kinome Mapper (http://www.reactionbiology.com/apps/kinome/mapper/Launch Kinome.htm).
The 2×DYRK1A/Ser/Thr 18 mixture was prepared in 50 mM HEPES pH 7.5, 0.01% BRIJ-35, 10 mM MgCl2, 1 mM EGTA.

[11] = test system: 299 protein kinases+17 additional preview kinases; assay: Protein Kinase Selectivity Profiler; format: biochemical, human; settings: LRRK2, LRRK2 G2019S, CHK1, DYRK1A, FLT3, MLK1, TNIK, TRKA; single dose 0.5 μM, 1 μM; 10 μM ATP
Method: In vitro profiling of the 317 member kinase panel was performed at Reaction Biology Corporation using the “HotSpot” assay platform. Briefly, specific kinase/substrate pairs along with required cofactors were prepared in reaction buffer; 20 mM Hepes (pH 7.5), 10 mM MgCl2, 1 mM EGTA, 0.02% Brij35, 0.02 mg/ml BSA, 0.1 mM Na3VO4, 2 mM DTT, 1% DMSO. Compounds were delivered into the reaction, followed ˜20 min later by addition of a mixture of ATP (Sigma) and 33P ATP (PerkinElmer) to a final concentration of 10 μM. Reactions were carried out at 25° C. for 120 min, followed by spotting of the reactions onto P81 ion exchange filter paper (Whatman). Unbound phosphate was removed by extensive washing of filters in 0.75% phosphoric acid. […] IC50 values and curve fits were obtained using Prism (GraphPad Software). Kinome tree representations were prepared using Kinome Mapper (http://www.reactionbiology.com/apps/kinome/mapper/Launch Kinome.htm). Specifically for the LRRK2 enzyme the substrate LRRKtide (gene bank and protein access numbers NP_940980.2 Q5S007) and clone aa 970-2527 expressed in baculovirus in insect cells with N-terminal GST tag was employed in the study protocol. In the case of DYRK1A (SEQ ID NO 16) the substrate casein (gene bank and protein access numbers NP_001387 Q13627) full length clone expressed in insect with n-terminal tag was used.
A control compound was tested in 10-dose IC50 mode with 3-fold serial dilution starting at 20 μM. Reactions were carried out at 10 μM ATP. Data pages include raw data, % Enzyme activity (relative to DMSO controls), and curve fits.

| SMILES | protection against MPTP-induced histological deficits [1] | protection against MPTP-induced motor-deficits [1] | protection against MPTP-induced neurochemical deficits [1] | protection against MPTP-induced TH neuronal loss in the substantia nigra and in the striatum [4] | AUC(0-t) ([5]; iv, 5 mg/kg) [ng·h/mL] | Vd ([5]; iv, 5 mg/kg) [L/kg] | clearance ([5]; iv, 5 mg/kg) [mL/min/kg] | half-life ([5]; iv, 5 mg/kg) [min] | AUC(0-t) ([5]; po, 30 mg/kg) [ng·h/mL] | Cmax ([5]; po, 30 mg/kg) [ng/mL] | F ([5]; po, 30 mg/kg) [%] | Tmax ([5]; po, 30 mg/kg) [h] | protection against MPTP-induced TH cell loss and dopaminergic degeneration in substantia nigra and striatum [7] | locomotor activities in MPTP-injected mice [7] | striatal dopamine levels in MPTP treated mice [7] | further results |
| --- | --- | --- | --- | --- | --- | --- | --- | --- | --- | --- | --- | --- | --- | --- | --- | --- |
| Cc1n[nH]c2ncc(-c3cncc(NC4CCN(C)CC4)n3)cc12.Cl [13 HCl, 6-(3-methyl-1H-pyrazolo[3,4-b]pyridin-5-yl)-N-(1-methylpiperidin-4-yl)pyrazin-2-amine hydrochloride] | significantly protected | significantly protected | not against neurochemical deficits | Protect Against MPTP-Induced TH Neuronal Loss | 1020 | 15.2 | 123 | 136 | 1040 | 133 | 24 | 6.7 | dose-dependent protection | Improve Locomotor Activities | Restore Striatal Dopamine Levels | solubility [2]: 50 µM; Calc. Conc. of test compound 13 HCl in Mice Brains ([3]; individual subjects, hydrochloride): 2.92 ng/g and 1.36 ng/g and 2.32 ng/g and 3.09 ng/g and 3.79 ng/g and 2.74 ng/g and 3.03 ng/g and 2.72 ng/g; Calc. Conc. of test compound 13 HCl in Mice Brains, Mean ([3]; mean of subjects): 2.75 ng/g; ATP TC50 [6]: >50 µM; Cell Mass TC50 [6]: >50 µM; Mem Tox TC50 [6]: >50 µM; ATP % Control ([6]; 5 μM): 93%; Cell Mass % Control ([6]; 5 μM): 89%; Mem Tox % Control ([6]; 5 μM): 93%; ATP % Control ([6]; 10 μM): 91%; Cell Mass % Control ([6]; 10 μM): 81%; Mem Tox % Control ([6]; 10 μM): 91%; ATP % Control ([6]; 50 μM): 78%; Cell Mass % Control ([6]; 50 μM): 62%; Mem Tox % Control ([6]; 50 μM): 90% |
| Cc1n[nH]c2ncc(-c3cncc(N4CCOCC4)n3)cc12 [Compound 105, 4-(6-(3-methyl-1H-pyrazolo[3,4-b]pyridin-5-yl)pyrazin-2-yl)morpholine] | significantly protected | significantly protected | not against neurochemical deficits | Protect Against MPTP-Induced TH Neuronal Loss | 1020 | 15.2 | 123 | 136 | 1040 | 133 | 24 | 6.7 | dose-dependent protection | Improve Locomotor Activities | Restore Striatal Dopamine Levels | pIC50 [8]: > 6.30; pIC50 [9]: > 6.30; pIC50 [10]: > 6.30; % enzyme inhibition relative to DMSO controls [11]: 5-15% |
